Reference: ChEMBL document CHEMBL4715873, “A novel synthetic acanthoic acid analogues and their cytotoxic activity in cholangiocarcinoma cells” (Bioorg Med Chem, 2021)

Legend:
[1] = Cytotoxicity against human KKU-055 cells assessed as growth inhibition incubated for 48 hrs by MTT assay; format: functional, cell-based, KKUM055; conditions: KKU-M055, 48 h
[2] = Cytotoxicity against human KKU-213 cells assessed as growth inhibition incubated for 48 hrs by MTT assay; format: functional, cell-based, KKUM213; conditions: KKU-M213, 48 h
[3] = Cytotoxicity against human KKU-214 cells assessed as growth inhibition incubated for 48 hrs by MTT assay; format: functional, cell-based, KKUM214; conditions: KKU-M214, 48 h
[4] = Cytotoxicity against human KKU-100 cells assessed as growth inhibition incubated for 48 hrs by MTT assay; format: functional, cell-based; conditions: KKU100, 48 h
[5] = Cytotoxicity against human PBMC assessed as growth inhibition incubated for 48 hrs by MTT assay
[6] = Potency index, ratio of acid IC50 to compound IC50 for cytotoxicity against human KKU-213 cells assessed as growth inhibition incubated for 48 hrs by MTT assay; format: functional, KKUM213

Row | Structure (SMILES) | IC50 [1] | IC50 [2] | IC50 [3] | IC50 [4] | IC50 [5] | Ratio IC50 [6]
1 | C=C[C@@]1(C)CC=C2[C@@H](CC[C@@H]3[C@](C)(C(=O)OCc4cn(Cc5ccc(C)cc5)nn4)CCC[C@@]23C)C1 | > 50 µM | 47 µM | 39 µM | > 50 µM |  | 
2 | C#CCOC(=O)[C@]1(C)CCC[C@@]2(C)C3=CC[C@](C)(C=C)C[C@@H]3CC[C@H]12 | 37 µM | 31 µM | 34 µM | > 50 µM | 71 µM | 
3 | C=C[C@@]1(C)CC=C2[C@@H](CC[C@@H]3[C@](C)(C(=O)OCc4cn(Cc5ccc(Br)cc5)nn4)CCC[C@@]23C)C1 | > 50 µM | > 50 µM | > 50 µM | > 50 µM |  | 
4 | C=C[C@@]1(C)CC=C2[C@@H](CC[C@@H]3[C@](C)(C(=O)OCCCC)CCC[C@@]23C)C1 | 49 µM | 37 µM | > 50 µM | > 50 µM |  | 
5 | C=C[C@@]1(C)CC=C2[C@@H](CC[C@@H]3[C@](C)(C(=O)OCc4ccc(Br)cc4)CCC[C@@]23C)C1 | > 50 µM | 41 µM | 41 µM | > 50 µM |  | 
6 | C=C[C@@]1(C)CC=C2[C@@H](CC[C@@H]3[C@](C)(C(=O)OCc4ccc(Cl)cc4)CCC[C@@]23C)C1 | > 50 µM | > 50 µM | > 50 µM | > 50 µM |  | 
7 | C=C[C@@]1(C)CC=C2[C@@H](CC[C@@H]3[C@](C)(C(=O)OCc4ccccc4F)CCC[C@@]23C)C1 | 47 µM | 35 µM | > 50 µM | > 50 µM |  | 
8 | C=C[C@@]1(C)CC=C2[C@@H](CC[C@@H]3[C@](C)(C(=O)OCc4cn(Cc5ccc(OC)cc5)nn4)CCC[C@@]23C)C1 | > 50 µM | > 50 µM | > 50 µM | > 50 µM |  | 
9 | C=C[C@@]1(C)CC=C2[C@@H](CC[C@@H]3[C@](C)(C(=O)OCc4cn(Cc5ccccc5F)nn4)CCC[C@@]23C)C1 | > 50 µM | > 50 µM | > 50 µM | > 50 µM |  | 
10 | C=C[C@@]1(C)CC=C2[C@@H](CC[C@@H]3[C@](C)(C(=O)OCc4cn(Cc5ccc(Cl)cc5)nn4)CCC[C@@]23C)C1 | > 50 µM | > 50 µM | 39 µM | > 50 µM |  | 
11 | C=C[C@@]1(C)CC=C2[C@@H](CC[C@@H]3[C@](C)(C(=O)OCc4ccc(C)cc4)CCC[C@@]23C)C1 | > 50 µM | > 50 µM | > 50 µM | > 50 µM |  | 
12 | C=C[C@@]1(C)CC=C2[C@@H](CC[C@@H]3[C@](C)(C(=O)OCc4ccc(OC)cc4)CCC[C@@]23C)C1 | > 50 µM | > 50 µM | > 50 µM | > 50 µM |  | 
13 | C=C[C@@]1(C)CC=C2[C@@H](CC[C@@H]3[C@](C)(C(=O)OCc4ccc([N+](=O)[O-])cc4)CCC[C@@]23C)C1 | > 50 µM | > 50 µM | > 50 µM | > 50 µM |  | 
14 | C=C[C@@]1(C)CC=C2[C@@H](CC[C@@H]3[C@](C)(C(=O)OCc4ccc(F)cc4)CCC[C@@]23C)C1 | > 50 µM | 38 µM | > 50 µM | > 50 µM |  | 
15 | C=C[C@@]1(C)CC=C2[C@@H](CC[C@@H]3[C@](C)(C(=O)OCc4cn(CCCCCCCC)nn4)CCC[C@@]23C)C1 | 48 µM | 37 µM | 38 µM | > 50 µM |  | 
16 | C=CCOC(=O)[C@]1(C)CCC[C@@]2(C)C3=CC[C@](C)(C=C)C[C@@H]3CC[C@H]12 | > 50 µM | > 50 µM | > 50 µM | > 50 µM |  | 
17 | C=C[C@@]1(C)CC=C2[C@@H](CC[C@@H]3[C@](C)(C(=O)OCc4cn(Cc5cccc(F)c5)nn4)CCC[C@@]23C)C1 | > 50 µM | > 50 µM | > 50 µM | > 50 µM |  | 
18 | C=C[C@@]1(C)CC=C2[C@@H](CC[C@@H]3[C@](C)(C(=O)OCc4ccccc4)CCC[C@@]23C)C1 | > 50 µM | > 50 µM | > 50 µM | > 50 µM |  | 
19 | C=C[C@@]1(C)CC=C2[C@@H](CC[C@@H]3[C@](C)(C(=O)OCc4cccc(F)c4)CCC[C@@]23C)C1 | 41 µM | 28 µM | > 50 µM | > 50 µM | 163 µM | 
20 | C=C[C@@]1(C)CC=C2[C@@H](CC[C@@H]3[C@](C)(C(=O)OCCCCCCCC)CCC[C@@]23C)C1 | > 50 µM | > 50 µM | > 50 µM | > 50 µM |  | 
21 | C=C[C@@]1(C)CC=C2[C@@H](CC[C@@H]3[C@](C)(C(=O)OCc4cn(Cc5ccc([N+](=O)[O-])cc5)nn4)CCC[C@@]23C)C1 | 33 µM | 18 µM | 21 µM | > 50 µM | > 200 µM | 8
22 | C=C[C@@]1(C)CC=C2[C@@H](CC[C@@H]3[C@](C)(C(=O)OCc4cn(Cc5ccc(F)cc5)nn4)CCC[C@@]23C)C1 | > 50 µM | > 50 µM | > 50 µM | > 50 µM |  | 
23 | C=C[C@@]1(C)CC=C2[C@@H](CC[C@@H]3[C@](C)(C(=O)OCc4cn(Cc5ccccc5)nn4)CCC[C@@]23C)C1 | 47 µM | 40 µM | 41 µM | > 50 µM |  | 
24 | C=C[C@@]1(C)CC=C2[C@@H](CC[C@@H]3[C@](C)(C(=O)O)CCC[C@@]23C)C1 | 120 µM | 149 µM | 168 µM | 174 µM |  | 
25 | O=C(NC1=CC(=O)[C@H]2O[C@H]2[C@H]1O)c1ccccc1O [DEHYDROXYMETHYLEPOXYQUINOMICIN] |  | 19 µM | 19 µM |  |  | 
